Columns and labels:
Aβ 1-42 = target: T1, Aβ 1-42 (Homo sapiens, UniProt P05067); assay: Determination of Aβ aggregation inhibitory activity (thioflavin T fluorescence); assay type: biochemical; settings: Aβ 1-42, 37° C. for 24 hours, thioflavin T; read-out: IC50 (μM) Test example 3 (Aβ aggregation inhibitory activity)
T1 construct: Aβ 1-42 (Peptide Institute, Inc.) was dissolved in 0.3% ammonia water; purchased Peptide Institute, Inc
Experimental: Pharmacological test example 3: Determination of Aβ aggregation inhibitory activity
Aβ 1-42 (Peptide Institute, Inc.) was dissolved in 0.3% ammonia water so that the concentration would be 0.5 mM and then diluted with PBS to 20 μM. The test compounds were prepared using DMSO at 100-fold of their final concentrations and adjusted so that the DMSO concentration would be 2%. The Aβ solution and each of the test compound solutions were mixed at an equivalent ratio and the mixtures were incubated at 37° C. for 24 hours. To each of the mixtures, an equal volume of a thioflavin T solution adjusted with a 100 mM Tris-glycine buffer (pH 8.5) to 6 μM was added. The fluorescence intensity was measured with a fluorescence plate reader (excitation wavelength: 440 nm; emission wavelength: 480 nm).
(§1) The final concentration of each compound at the time of measurement was set at 0.1, 0.3, 1, 3, and 10 μM. The sample to which only DMSO was added was used as a negative control and its fluorescence intensity was taken as 0% inhibitory activity.

[1] = target: recombinant three-repeat microtubule-binding domain (3R-MBD) of tau protein (Homo sapiens, UniProt P10636); assay: Determination of tau aggregation inhibitory activity (heparin-induced, thioflavin T fluorescence; electron microscope); assay type: biochemical
recombinant three-repeat microtubule-binding domain (3R-MBD) of tau protein, sequence (P10636 186-279 isoform P10636-2 limits assumed): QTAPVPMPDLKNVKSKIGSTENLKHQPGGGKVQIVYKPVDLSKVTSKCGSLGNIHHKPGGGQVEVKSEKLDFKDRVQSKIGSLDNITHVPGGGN
Experimental: Pharmacological Test Example 1: Determination of Tau Aggregation Inhibitory Activity
A recombinant three-repeat microtubule-binding domain (3R-MBD) of tau protein was expressed in E. coli and was purified and used for the experiment. The purified tau solution was diluted with a 50 mM Tris-HCl buffer (pH 7.6) to a final concentration of 10 μM. The test compounds were prepared using dimethylsulfoxide (DMSO) at 20-fold of their final concentrations and added to the plate so that the DMSO concentration would be 5%. Heparin was added to the plate so that the final concentration would be 10 μM and the plate was left to stand at 37° C. for 16 hours. Thioflavin T was added to the plate so that the concentration would be 10 μM and the fluorescence intensity was measured with a fluorescence plate reader (PerkinElmer, Inc.) (excitation wavelength: 440 nm; emission wavelength: 480 nm).
as §1
The samples were placed on a grid and washed with distilled water. A 1 mM phosphotungstic acid aqueous solution was added to the samples. The samples were washed, dried overnight, and observed.

T1 sequence (P05067 672-713): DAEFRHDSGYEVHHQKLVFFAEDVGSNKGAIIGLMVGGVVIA

SMILES: COc1cc(OCc2ccccn2)ccc1/C=C/c1cc(/C=C/c2ccc3cc[nH]c3c2)[nH]n1 [Example 2, 3-[(1E)-2-(1H-indol-6-yl)ethenyl]-5-[(1E)-2-[2-methoxy-4-(2-pyridylmethoxy)phenyl]ethenyl]-1H-pyrazole]
- IC50 (Aβ 1-42): 1.5 µM
- tau aggregate formation observed with an electron microscope ([1]; 0.1 μM and 1 μM, compared with DMSO only (FIG. 1)): less tau aggregate formation
- IC50 ([1]; 3R-MBD tau 10 μM, heparin 10 μM, 37° C. for 16 hours, thioflavin T, read-out: IC50 (μM) Test example 1 (tau aggregation inhibitory activity)): 0.92 µM
